Reference: patent publication US20240327392A1, “HETEROCYCLOALKYL-SUBSTITUTED POLYHETEROAZOLE DERIVATIVES AS MEDICAMENTS FOR TREATING AND/OR PREVENTING RS VIRUS INFECTIONS” (ALBIUS SCIENCES ALPHA PRIVATE LIMITED, priority 2021, published 2024)

What follows are molecules tested on human RS virus A2 strain (assay: In vitro test for anti-RS virus proliferation inhibitory activity (quantitative RT-PCR of RS virus RNA copy number in infected Vero cells)). Details: 72 h; Vero cells infected with human RS virus A2 strain, 3 days of incubation, RS virus N gene RNA copy number by quantitative RT-PCR; read-out: Anti-RS virus Activity.
Format: cell-based
In short: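 Vero cells infected with RSV A2 (1.7×10^4 TCID50/mL in inoculum mix) with compound in 10% FCS EMEM, 3 days at 37 °C, 5% CO2. Lysate viral N-gene RNA quantified by one-step SYBR qRT-PCR; copy number by comparative Ct relative to untreated infected cells.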

SMILES	IC50 [µM]
CC(C)(C)O[C@@H]1C[C@@H](c2nc(CCCc3ccccc3)no2)N(C(=O)c2ccc3cc(C(=O)N4C[C@H](OC(C)(C)C)C[C@H]4c4nc(CCCc5ccccc5)no4)ccc3c2)C1 [Compound 4-4, Naphthalene-2,6-diylbis (((2S,4R)-4-(tert-butoxy)-2-(3-(3-phenylpropyl)-1,2,4-oxadiazol-5-yl)pyrrolidin-1-yl)methanone)]	> 50

Same assay, conditions: 72 h; Vero cells infected with human RS virus A2 strain, 3 days of incubation, RS virus RNA copy number by quantitative RT-PCR; read-out: Anti-RS virus Activity

SMILES	IC50 [µM]
O=S(=O)(N1CCCCC1)N1C[C@H](F)C[C@H]1c1nc(CCCc2ccccc2)no1 [Compound 8AD, 5-((2S,4R)-4-fluoro-1-(piperidin-1-ylsulfonyl)pyrrolidin-2-yl)-3-(3-phenylpropyl)-1,2,4-oxadiazole]	10 to 50
c1ccc(CCCc2noc([C@@H]3CCCCN3CCc3ccccc3)n2)cc1 [Compound 2AB, (S)-5-(1-phenethylpiperidin-2-yl)-3-(3-phenylpropyl)-1,2,4-oxadiazole]	10 to 50
O=S(=O)(N1CCCCC1)N1[C@@H]2CC[C@@H](C2)[C@H]1c1nnc(CCc2ccncc2)[nH]1 [Compound 25AD, (1R,3S,4S)-2-(piperidine-1-ylsulfonyl)-3-(5-(2-(pyridin-4-yl)ethyl)-4H-1,2,4-triazol-3-yl)-2-azabicyclo[2.2.1]heptane]	10 to 50
Cc1sc([C@@H]2CCCCN2S(=O)(=O)C2CCCCC2)nc1C(=O)O [Compound 36B, (S)-2-(1-(Cyclohexylsulfonyl)piperidin-2-yl)-5-methyl thiazole-4-carboxylic acid]	< 10
O=S(=O)(Cc1ccccc1)N1CC(CC2CCC2)CC1c1nc(CCCc2ccccc2)no1 (centres unmarked) [Compound 6E, 3-(3-phenylpropyl)-5-(1-benzylsulfonyl-4-cyclobutylmethylpyrrolidin-2-yl)-1,2,4-oxadiazole]	< 10
CC(C)NC(=O)N1CCC[C@H]1c1nc(CCCc2ccccc2)no1 [Compound 1G, (S)—N-isopropyl-2-(3-(3-phenylpropyl)-1,2,4-oxadiazol-5-yl)pyrrolidine-1-carboxamide]	> 50
CN(C)c1cccc2c(S(=O)(=O)N3C[C@H](F)C[C@H]3c3nc(CCCc4ccccc4)no3)cccc12 [Compound 8AL, 5-(((2S,4R)-4-fluoro-2-(3-(3-phenylpropyl)-1,2,4-oxadiazole-5-yl)pyrrolidin-1-yl)sulfonyl)-N,N-dimethylnaphthalen-1-amine]	< 10
CC(C)(C)OC(=O)N1CCCC[C@H]1c1nnc(CCc2ccccc2)o1 [Compound 17-1, Tert-butyl (S)-2-(5-phenethyl-1,3,4-oxadiazol-2-yl) piperidine-1-carboxylate]	< 10
CC(C)CS(=O)(=O)N1CC(c2ccccc2)C[C@H]1c1nc(CCCc2ccccc2)no1 (stereo in doubt) [Compound 7A, 3-(3-phenylpropyl)-5-[(2S,4S)-1-isobutylsulfonyl-4-phenylpyrrolidin-2-yl]-1,2,4-oxadiazole]	< 10
CC(=O)N1CCCC[C@H]1c1nc(CCCc2ccccc2)no1 [Compound 2R]	10 to 50
CC(C)(C)OC(=O)N1CCC(CS(=O)(=O)N2CC3(CC3)C[C@H]2c2nc(CCCc3ccccc3)no2)CC1 [Compound 5AN, tert-buthyl (S)-4-(((6-(3-(3-phenylpropyl)-1,2,4-oxadiazole-5-yl)-5-azaspiro[2.4]heptan-5-yl)sulfonyl)methyl)piperidin-1-carboxylate]	< 10
O=S(=O)(C1CCCCC1)N1[C@@H]2CC[C@@H](C2)[C@H]1c1nnc(CCc2ccncc2)[nH]1 [Compound 29B, (1R,3S,4S)-2-(cyclohexylsulfonyl)-3-(5-(2-(pyridin-4-yl)ethyl)-4H-1,2,4-triazol-3-yl)-2-azabicyclo[2.2.1]heptane]	10 to 50
COc1ccc(S(=O)(=O)N2C[C@H](F)C[C@H]2c2nc(CCCc3ccccc3)no2)cc1 [Compound 8AI, 5-((2S,4R)-4-fluoro-1-((4-methoxyphenyl)sulfonyl)pyrrolidin-2-yl)-3-(3-phenylpropyl)-1,2,4-oxadiazole]	< 10
